In ChEMBL document CHEMBL5726485, “Polycyclic pyridone derivative having integrase inhibitory activity” (2019):

Experiment: Anti-HIV Activity: Previously, a series of two-fold dilution on test samples were carried out in a 96-well plate (50 μL/well). Two plates were made for measuring anti-HIV activity and measuring cytotoxicity. For each agent, measurement in duplicate was carried out. An MT-4 cell suspension of 2.5×10^5/mL was dispensed at 100 μL/well onto the 96-well plate containing the test samples. An HIV virus solution was dispensed at 50 μL/well onto the 96-well plate containing the test samples and the cell. To the plate for measuring cytotoxicity, a culture solution was dispensed at 50 μL/well. It was mixed by a plate mixer, and then incubated in a CO2 incubator for 4 days. […] Thirty microliters of a MTT (3-(4,5-dimethylthiazol-2-yl)-2,5-diphenyltetrazolium bromide) solution was dispensed to each well.A reaction was allowed to occur in a CO2 incubator for an hour. From each well, 150 μL of the supernatant was removed such that cells are not sucked. One-hundred and fifty microliters of a cell lysis solution was added thereto, and then it was mixed well by a plate mixer until the whole cells are lysed. The mixed 96-well plates were measured by a microplate reader at two wavelengths, 560 nm/690 nm. Based on the following calculation formula, 50% HIV inhibition concentration (EC50) was calculated.
Settings: MT4

Row | Structure (SMILES) | EC50
1 | C[C@H]1CCN(C2CC2)[C@@H]2Cn3cc(-c4nnc(Cc5ccc(F)cc5F)s4)c(=O)c(OCc4ccccc4)c3C(=O)N12 | 3 nM
2 | C[C@H]1CCO[C@@H]2Cn3cc(-c4nnc(Cc5ccc(F)cc5F)s4)c(=O)c(O)c3C(=O)N12 | 2.1 nM
3 | C[C@H]1CCO[C@@H]2Cn3cc(-c4nnc(Cc5c(F)cc(F)cc5F)s4)c(=O)c(O)c3C(=O)N12 | 1.4 nM
4 | COCCN1CN(CC(C)C)n2cc(C(=O)NNC(=S)Cc3ccc(F)cc3F)c(=O)c(O)c2C1=O | 3.4 nM
5 | CCN1CN(CCOC)C(=O)c2c(O)c(=O)c(-c3ncc(Cc4cccc(Cl)c4F)s3)cn21 | 8.7 nM
6 | C[C@@H]1C[C@@H](C)N2C(=O)c3c(O)c(=O)c(-c4nnc(Cc5ccc(F)cc5F)s4)cn3C[C@@H]2O1 | 2.7 nM
7 | O=C1c2c(O)c(=O)c(-c3ncc(Cc4ccc(F)cc4F)s3)cn2C[C@@H]2CCCCN12 | 11 nM
8 | C[C@@H]1CCC2C(=O)c3c(O)c(=O)c(-c4ncc(Cc5ccc(F)cc5F)s4)cn3C[C@@H]2O1 (stereo partly specified) | 7.4 nM
9 | C[C@H]1CCO[C@@H]2Cn3cc(-c4nnc(Cc5ccc(F)c(Cl)c5F)s4)c(=O)c(O)c3C(=O)N12 | 2.3 nM
10 | C[C@@H]1C[C@@H](C)N2C(=O)c3c(O)c(=O)c(-c4nnc(Cc5cccc(Cl)c5F)s4)cn3C[C@@H]2O1 | 2.8 nM
11 | O=C1c2c(O)c(=O)c(-c3nnc(Cc4ccc(F)cc4F)s3)cn2C[C@H]2O[C@@H]3CCC[C@@H]3N12 | 1.6 nM
